Test results: ChEMBL document CHEMBL3860056, “In vitro and in vivo inhibitory activity of 6-amino-2,4,5-trimethylpyridin-3-ols against inflammatory bowel disease” (Bioorg Med Chem Lett, 2016)

Tests used:
[1] = (§1) Antiinflammatory activity in human HT-29 cells assessed as inhibition of TNF-alpha induced BCECF-AM labeled human U937 cell adhesion at 1 uM preincubated for 1 hr followed by stimulation with TNF-alpha for 3 hrs followed by further co-incubation with BCECF-AM labeled human U937 cells for 1 hr by fluorescent/light microscopic analysis; assay type: functional
Rattus norvegicus [2] = organism: Rattus norvegicus; assay: Potency index, ratio of compound efficacy to sulfasalazine efficacy in TNBS-induced Sprague-Dawley rat colitis model assessed as colon weight recovery; assay type: functional
Rattus norvegicus [3] = assay: Antiinflammatory activity in po dosed TNBS-induced Sprague-Dawley rat colitis model assessed as body weight recovery compound administered for 5 days post 1 day of TNBS-challenge measured daily during compound dosing; assay type: functional, organism-based
Rattus norvegicus [4] = organism: Rattus norvegicus; assay: Potency index, ratio of compound efficacy to sulfasalazine efficacy in TNBS-induced Sprague-Dawley rat colitis model assessed as body weight recovery; assay type: functional
Rattus norvegicus [5] = assay: Antiinflammatory activity in TNBS-induced Sprague-Dawley rat colitis model assessed as colon weight recovery at 10 mg/kg/day, po administered for 5 days post 1 day of TNBS-challenge relative to control; assay type: functional
Rattus norvegicus [6] = assay: Antiinflammatory activity in TNBS-induced Sprague-Dawley rat colitis model assessed as inhibition of myeloperoxidase level in colon at 0.1 mg/kg/day, po administered for 5 days post 1 day of TNBS-challenge by colorimetric method relative to control; assay type: functional
Rattus norvegicus [7] = assay: Antiinflammatory activity in TNBS-induced Sprague-Dawley rat colitis model assessed as inhibition of myeloperoxidase level in colon at 1 mg/kg/day, po administered for 5 days post 1 day of TNBS-challenge by colorimetric method relative to control; assay type: functional
Rattus norvegicus [8] = assay: Antiinflammatory activity in TNBS-induced Sprague-Dawley rat colitis model assessed as colon weight recovery at 0.1 mg/kg/day, po administered for 5 days post 1 day of TNBS-challenge relative to control; assay type: functional
Rattus norvegicus [9] = assay: Antiinflammatory activity in TNBS-induced Sprague-Dawley rat colitis model assessed as body weight recovery at 0.1 mg/kg/day, po administered for 5 days post 1 day of TNBS-challenge measured daily during compound dosing relative to control; assay type: functional
Rattus norvegicus [10] = assay: Antiinflammatory activity in TNBS-induced Sprague-Dawley rat colitis model assessed as colon weight recovery at 1 mg/kg/day, po administered for 5 days post 1 day of TNBS-challenge relative to control; assay type: functional
Rattus norvegicus [11] = organism: Rattus norvegicus; assay: Potency index, ratio of compound efficacy to sulfasalazine efficacy in TNBS-induced Sprague-Dawley rat colitis model assessed as inhibition of MPO level in colon; assay type: functional
Rattus norvegicus [12] = assay: Antiinflammatory activity in TNBS-induced Sprague-Dawley rat colitis model assessed as body weight recovery at 1 mg/kg/day, po administered for 5 days post 1 day of TNBS-challenge measured daily during compound dosing relative to control; assay type: functional
Rattus norvegicus [13] = assay: Antiinflammatory activity in po dosed TNBS-induced Sprague-Dawley rat colitis model assessed as recovery of increase in colon wet weight administered for 5 days post 1 day of TNBS-challenge; assay type: functional, organism-based
[14] = as §1, with “adhesion” for “adhesion at 1 uM”; assay type: functional, cell-based
Rattus norvegicus [15] = assay: Antiinflammatory activity in TNBS-induced Sprague-Dawley rat colitis model assessed as body weight recovery at 10 mg/kg/day, po administered for 5 days post 1 day of TNBS-challenge measured daily during compound dosing relative to control; assay type: functional
Rattus norvegicus [16] = assay: Antiinflammatory activity in TNBS-induced Sprague-Dawley rat colitis model assessed as inhibition of myeloperoxidase level in colon at 10 mg/kg/day, po administered for 5 days post 1 day of TNBS-challenge by colorimetric method relative to control; assay type: functional
Rattus norvegicus [17] = assay: Antiinflammatory activity in po dosed TNBS-induced Sprague-Dawley rat colitis model assessed as reduction in colon edema and adhesion administered for 5 days post 1 day of TNBS-challenge by microscopic analysis; assay type: functional, organism-based
[18] = as §1, with “20 mM” for “1 uM”; assay type: functional
Rattus norvegicus [19] = assay: Antiinflammatory activity in TNBS-induced Sprague-Dawley rat colitis model assessed as body weight recovery at 300 mg/kg/day, po administered for 5 days post 1 day of TNBS-challenge measured daily during compound dosing relative to control; assay type: functional
Rattus norvegicus [20] = assay: Antiinflammatory activity in TNBS-induced Sprague-Dawley rat colitis model assessed as inhibition of myeloperoxidase level in colon at 300 mg/kg/day, po administered for 5 days post 1 day of TNBS-challenge by colorimetric method relative to control; assay type: functional
Rattus norvegicus [21] = assay: Antiinflammatory activity in TNBS-induced Sprague-Dawley rat colitis model assessed as colon weight recovery at 300 mg/kg/day, po administered for 5 days post 1 day of TNBS-challenge relative to control; assay type: functional

Structure (SMILES)	inhibition at 1 µM [1] [%]	also measured
Cc1nc(NC2CCCC2)c(C)c(C)c1O	73.3	–
Cc1nc(Nc2ccc(F)cc2)c(C)c(C)c1O	71.5	–
Cc1nc(Nc2ccccc2)c(C)c(C)c1O	73.6	–
Cc1nc(Nc2cccc([N+](=O)[O-])c2)c(C)c(C)c1O	18.5	–
Cc1nc(N)c(C)c(C)c1O	22.9	–
Cc1nc(Nc2ccc(Cl)cc2)c(C)c(C)c1O	28.4	–
Cc1nc(N(C)c2ccc(F)cc2)c(C)c(C)c1O	77.2	–
Cc1ccc(Nc2nc(C)c(O)c(C)c2C)cc1	84.4	–
Nc1cccc2c1CN(C1CCC(=O)NC1=O)C2=O (stereo not given) [LENALIDOMIDE]	64.6	–
Cc1nc(NCc2ccccc2)c(C)c(C)c1O	35.7	–
Cc1nc(Nc2ccc(Oc3ccccc3)cc2)c(C)c(C)c1O	17.3	–
Cc1nc(NCc2ccc(-c3ccccc3)cc2)c(C)c(C)c1O	1.3	–
Cc1nc(Nc2cccc(OC(C)C)c2)c(C)c(C)c1O	24.9	–
Cc1nc(Nc2cccc3ccccc23)c(C)c(C)c1O	52.4	–
Cc1nc(Nc2ccc(Br)cc2)c(C)c(C)c1O	47.2	–
Cc1cccc(Nc2nc(C)c(O)c(C)c2C)c1	74	–
Cc1ccc(N(C)c2nc(C)c(O)c(C)c2C)cc1	67.4	–
Cc1nc(NC2CCCCC2)c(C)c(C)c1O	36	–
Cc1nc(Nc2cccc(Br)c2)c(C)c(C)c1O	20.5	–
CCCCCCCCCCc1ccc(Nc2nc(C)c(O)c(C)c2C)cc1	76.6	–
Cc1nc(N2CCCCC2)c(C)c(C)c1O	47.9	–
CCCc1ccc(Nc2nc(C)c(O)c(C)c2C)cc1	77.9	Ratio (Rattus norvegicus [2]): >300; Activity (Rattus norvegicus [3]): Dose-dependent effect; Ratio (Rattus norvegicus [4]): >300; Activity (Rattus norvegicus [5]): 88.6%; inhibition in vivo at 0.1 mg/kg/day (Rattus norvegicus [6]): 55.4%; inhibition in vivo at 1 mg/kg/day (Rattus norvegicus [7]): 79.9%; Activity (Rattus norvegicus [8]): 56.6%; Activity (Rattus norvegicus [9]): 47.2%; Activity (Rattus norvegicus [10]): 72.6%; Ratio (Rattus norvegicus [11]): >300; Activity (Rattus norvegicus [12]): 58.3%; Activity (Rattus norvegicus [13]): Dose-dependent effect; IC50 [14]: 0.00019 mM; Activity (Rattus norvegicus [15]): 69.9%; inhibition in vivo at 10 mg/kg/day (Rattus norvegicus [16]): 96.3%; Activity (Rattus norvegicus [17]): Dose-dependent effect
CCCCCCNc1nc(C)c(O)c(C)c1C	28.4	–

Structure (SMILES)	inhibition at 1 µM [1] [%]	also measured
Nc1ccc(O)c(C(=O)O)c1 [MESALAMINE]	3.8	inhibition at 20000 µM [18]: 52.7%; IC50 [14]: 18.1 mM
Cc1nc(Nc2ccc(C(C)(C)C)cc2)c(C)c(C)c1O	27.3	–
Cc1nc(-n2cccc2)c(C)c(C)c1O	56.1	–
Cc1nc(NCc2ccc(C(C)(C)C)cc2)c(C)c(C)c1O	49.2	–
Cc1nc(Nc2ccccc2C(C)C)c(C)c(C)c1O	37.8	–
Cc1cccc(N(C)c2nc(C)c(O)c(C)c2C)c1	63.2	–
Cc1nc(Nc2ccc([N+](=O)[O-])cc2)c(C)c(C)c1O	39	–
Cc1nc(N(c2ccccc2)c2ccccc2)c(C)c(C)c1O	41.3	–
Cc1nc(Nc2cccc(F)c2)c(C)c(C)c1O	16.3	–
Cc1nc(N(C)c2ccccc2)c(C)c(C)c1O	58.1	–
Cc1nc(N2CCOCC2)c(C)c(C)c1O	67.7	–
Cc1nc(N(C)c2ccc(Cl)cc2)c(C)c(C)c1O	65.2	–
Cc1nc(N2CCCC2)c(C)c(C)c1O	36.7	–
Cc1nc(Nc2ccc3c(c2)OCO3)c(C)c(C)c1O	26.5	–
Cc1nc(N2CCN(C)CC2)c(C)c(C)c1O	47.6	–
CCCCCCCCCCCCCCCCNc1nc(C)c(O)c(C)c1C	26.9	–
COc1ccc(Nc2nc(C)c(O)c(C)c2C)cc1	14	–
Cc1nc(NCCCO)c(C)c(C)c1O	19	–
O=C(O)c1cc(/N=N/c2ccc(S(=O)(=O)Nc3ccccn3)cc2)ccc1O [SULFASALAZINE]	–	Activity (Rattus norvegicus [19]): 55.6%; inhibition in vivo at 300 mg/kg/day (Rattus norvegicus [20]): 58.6%; Activity (Rattus norvegicus [21]): 67.1%
Cc1nc(N2CCC(C(O)(c3ccccc3)c3ccccc3)CC2)c(C)c(C)c1O	-7	–
Cc1nc(N(c2ccccc2)c2ccc3ccccc3c2)c(C)c(C)c1O	13.4	–
Cc1nc(Nc2cccc(Cl)c2)c(C)c(C)c1O	42.5	–
